Columns and labels:
[1] = tested on: Aβ production in HEK cells over-expressing Wild type β-APP; test: Aβ production inhibition, sandwich-ELISA in HEK cells which over-express Wild type β-APP (SE-WT); format: cell-based, human; conditions: Homo sapiens; for IC50: HEK293, based on the respective plateau of maximum inhibition; for Emax: HEK293, maximum inhibition plateau, read-out: SE-WT max. inhibition %
Procedure: (§1) The effect of test substances on the inhibition of Aβ-amyloid production can be measured in the supernatant of cell cultures of β-APP expressed cells using ELISA tests or other quantitative determination methods for β-APP degradation products. Typically, 8×10^5 cells (e.g. HEK cells, which express recombinant human β-APP variants) are plated out in each well of a culture dish having 24 wells in growth media such as e.g. OPTIMEM (Gibco) and the test compound is then added. After an incubation period of 24 to 48 hours at 37° C. in a 10% CO2 atmosphere the supernatant is removed from the cell cultures and the β-APP degradation products (e.g. Aβ or β-[…]) are determined with the aid of ELISA (or sandwich ELISA) analysis or by means of quantitative immunoprecipitation (after metabolic radiolabelling of the cell proteins). Typically, 300 μl of the cell supernatant are tested according to the state of the art for ELISA tests in culture dishes having 96 wells. In the case of sandwich ELISA for Aβ, the binding antibody can be directed against the first 16 amino acids of Aβ-peptide (e.g. 6E10 Senetek, Maryland Heights, Mo.) and the detection antibody can be directed against amino acids 17-40 or 17-42 of Aβ and carries a detection system such as e.g. peroxidase. A simple ELISA test with an antibody, e.g. 22C11 (Boehringer Mannheim), can be used as the test for […]; the second antibody can be an anti-(mouse) Ig having a detection system, such as e.g. peroxidase. The peroxidase reaction can be carried out e.g. using a TMB substrate (BioRAD) and the measurements can be carried out at 650 nm using an ELISA reading apparatus. […] SE-SFAD signifies the Aβ production inhibition measured using sandwich-ELISA in HEK cells, SFAD signifies over-expressed mutated β-APP, and SE-WT signifies the Aβ production inhibition measured using sandwich-ELISA in HEK cells which over-express Wild type β-APP. The IC50 values are based on the respective plateau of maximum inhibition.

[2] = tested on: Aβ production in HEK cells over-expressing mutated β-APP (SFAD); test: Aβ production inhibition, sandwich-ELISA in HEK cells, over-expressed mutated β-APP (SE-SFAD); format: cell-based, human; conditions: Homo sapiens, HEK293, HEK cells; for IC50: based on the respective plateau of maximum inhibition; for Emax: maximum inhibition plateau, read-out: SE-SFAD max. inhibition %
Procedure: as §1

CCCOC1CCN(C(=O)c2cc(-c3ccccc3)c(=O)n3ccc4ccsc4c23)C1 (centres unmarked) [Compound 10, 8-Phenyl-10-(3-propoxy-pyrrolidine-1-carbonyl)-thieno[2,3-a]-quinolizin-7-one]
IC50 [1]: 7 µM
Emax [1]: 50%
IC50 [2]: 6.6 µM
Emax [2]: 50%

O=C(OCc1cccs1)c1cc(-c2ccccc2)c(=O)n2ccc3ccsc3c12 [Compound 55, Thiophen-2-yl-methyl 7-oxo-8-phenyl-7H-thieno[2,3-a]quinolizine-10-carboxylate]
IC50 [1]: 5 µM
Emax [1]: 60%
IC50 [2]: 4 µM
Emax [2]: 50%

COC(=O)c1cc(-c2ccccc2)c(=O)n2ccc3ccc(Cl)cc3c12 [Compound 36, Methyl 10-chloro-4-oxo-3-phenyl-4H-pyrido [2,1-a]isoquinoline-1-carboxylate]
IC50 [1]: 1 µM
Emax [1]: 60%
IC50 [2]: 2.8 µM
Emax [2]: 40%

COCCN(C(=O)c1cc(-c2ccc(OCc3ccccc3)cc2)c(=O)n2ccc3cc(I)sc3c12)c1ccccc1 [Compound 81, 8-(4-Benzyloxy-phenyl)-2-iodo-7-oxo-7H-thieno[2,3-a]quinolizine-10-carboxylic acid (2-methoxy-ethyl)-phenyl-amide]
IC50 [1]: 1.2 µM
Emax [1]: 100%
IC50 [2]: < 1 µM
Emax [2]: 50%

COC(=O)c1cc(-c2ccccc2)c(=O)n2ccccc12 [Compound 33, Methyl 4-oxo-3-phenyl-4H-quinolizine-1-carboxylate]
IC50 [1]: 5 µM
Emax [1]: 40%
IC50 [2]: 6 µM
Emax [2]: 40%

CC(C)C[C@H](N)COC(=O)c1cc(-c2ccccc2)c(=O)n2ccc3ccsc3c12 [Compound 31, 2-(S)-Amino-4-methyl-pentyl 7-oxo-8-phenyl-7H-thieno[2,3-a]-quinolizine-10-carboxylate]
IC50 [1]: 1.2 µM
Emax [1]: 55%
IC50 [2]: 5.3 µM
Emax [2]: 100%

CC(=O)c1cc(-c2ccccc2)c(=O)n2ccc3ccsc3c12 [Compound 58, 10-Acetyl-8-phenyl-thieno[2,3-a]quinolizine-7-one]
IC50 [1]: 0.2 µM
Emax [1]: 40%
IC50 [2]: 1 µM
Emax [2]: 60%

COCCN(CCOC)C(=O)c1cc(-c2ccc(OCc3ccccc3)cc2)c(=O)n2ccc3ccsc3c12 [Compound 67, 8-(4-Benzyloxy-phenyl)-7-oxo-7H-thieno[2,3-a]quinolizine-10-carboxylic acid bis-(2-methoxy-ethyl)-amide]
IC50 [1]: 0.6 µM
Emax [1]: 80%
IC50 [2]: 0.8 µM
Emax [2]: 70%

CCCOC1CN(C(=O)c2cc(-c3ccccc3)c(=O)n3ccc4ccsc4c23)C1 [Compound 1, 8-Phenyl-10-(3-propoxy-azetidin-1-carbonyl)-thieno[2,3-a]quinolizin-7-one]
IC50 [1]: 4 µM
Emax [1]: 75%
IC50 [2]: 2 µM
Emax [2]: 65%

COC(=O)c1cc(-c2ccc(C(C)(C)C)cc2)c(=O)n2ccc3ccsc3c12 [Compound 106, Methyl 8-(4-tert-butyl-phenyl)-7-oxo-7H-thieno[2,3-a]quinolizine-10-carboxylate]
IC50 [1]: 0.8 µM
Emax [1]: 95%
IC50 [2]: 2.3 µM
Emax [2]: 85%

O=C1CC[C@@H](COC(=O)c2cc(-c3ccccc3)c(=O)n3ccc4ccsc4c23)N1 [Compound 4, 5-Oxo-pyrrolidin-2-(S)-yl-methyl 7-oxo-8-phenyl-7H-thieno[2,3-a]-quinolizine-10-carboxylate]
IC50 [1]: 5 µM
Emax [1]: 25%
IC50 [2]: 10 µM
Emax [2]: 25%

CCOC1CCN(C(=O)c2cc(-c3ccccc3)c(=O)n3ccc4ccsc4c23)C1 (centres unmarked) [Compound 9, 10-(3-Ethoxy-pyrrolidine-1-carbonyl)-8-phenyl-thieno[2,3-a]quinolizin-7-one]
IC50 [1]: 40 µM
Emax [1]: 50%
IC50 [2]: 5 µM
Emax [2]: 35%

CN(C)C(=O)COC(=O)c1cc(-c2ccccc2)c(=O)n2ccc3ccsc3c12 [Compound 30, Dimethyl-carbamoylmethyl 7-oxo-8-phenyl-7H-thieno[2,3-a]-quinolizine-10-carboxylate]
IC50 [1]: 5 µM
Emax [1]: 60%
IC50 [2]: 5 µM
Emax [2]: 25%

COC1CCCCC1N(C)C(=O)c1cc(-c2ccccc2)c(=O)n2ccc3ccsc3c12 (centres unmarked) [Compound 26, 7-Oxo-8-phenyl-7H-thieno[2,3-a]quinolizine-10-(2-methoxycyclohexyl)-methyl-amide]
IC50 [1]: 1.2 µM
Emax [1]: 100%
IC50 [2]: 5 µM
Emax [2]: 80%

CC(C)OC1CCN(C(=O)c2cc(-c3ccccc3)c(=O)n3ccc4ccsc4c23)C1 (centres unmarked) [Compound 51, 10-(3-Isopropoxy-pyrrolidine-1-carbonyl)-8-phenyl-thieno[2,3-a]-quinolizin-7-one]
IC50 [1]: 24 µM
Emax [1]: 100%
IC50 [2]: 60 µM
Emax [2]: 100%

CC(C)N(CC#CCOC(=O)c1cc(-c2ccccc2)c(=O)n2ccc3ccsc3c12)C(C)C [Compound 48, 4-Diisopropylamino-but-2-ynyl 7-oxo-8-phenyl-7H-thieno[2,3-a]-quinolizine-10-carboxylate methanesulphonate]
IC50 [1]: 3.3 µM
Emax [1]: 100%
IC50 [2]: 12 µM
Emax [2]: 100%

O=C(c1cc(-c2ccccc2)c(=O)n2ccc3ccsc3c12)N1CCC[C@@H]1CI [Compound 11, 10-(2-(R)-Iodomethyl-pyrrolidine-1-carbonyl)-8-phenyl-thieno[2,3-a]-quinolizin-7-one]
IC50 [1]: 11 µM
Emax [1]: 100%

CCN(CCO)C(=O)c1cc(-c2ccccc2)c(=O)n2ccc3ccsc3c12 [Compound 21, 7-Oxo-8-phenyl-7H-thieno[2,3-a]quinolizine-10-carboxylic acid (2-hydroxy-ethyl)-ethyl-amide]
IC50 [1]: 40 µM
Emax [1]: 100%

CC(=O)OC[C@H]1CCCN1C(=O)c1cc(-c2ccccc2)c(=O)n2ccc3ccsc3c12 [Compound 12, 1-(7-Oxo-8-phenyl-7H-thieno[2,3-a]quinolizine-10-carbonyl)-pyrrolidin-2-(R)-yl-methyl acetate]
IC50 [1]: 1 µM
Emax [1]: 50%

COCCN(C)C(=O)c1cc(-c2ccccc2)c(=O)n2ccc3ccsc3c12 [Compound 19, 7-Oxo-8-phenyl-7H-thieno[2,3-a]quinolizine-10-carboxylic acid (2-methoxy-ethyl)-methyl-amide]
IC50 [1]: 20 µM
Emax [1]: 100%

COCCN(Cc1cccs1)C(=O)c1cc(-c2ccccc2OC)c(=O)n2ccc3ccsc3c12 [Compound 140, 8-(2-Methoxy-phenyl)-7-oxo-7H-thieno[2,3-a]quinolizine-10-carboxylic acid (2-methoxy-ethyl)-thiophen-2-yl-methyl-amide]
IC50 [2]: 2.5 µM
Emax [2]: 30 to 100%

COCCN(C(=O)c1cc(-c2ccc(OCc3ccccc3)cc2)c(=O)n2ccc3cc(C(C)O)sc3c12)c1ccccc1 (racemic) [Compound 75, (RS)-8-(4-Benzyloxy-phenyl)-2-(1-hydroxy-ethyl)-7-oxo-7H-thieno[2,3-a]quinolizine-10-carboxylic acid (2-methoxy-ethyl)-phenyl-amide]
IC50 [2]: 1.3 µM
Emax [2]: 100%

COC(=O)c1cc(-c2ccccc2)c(=O)n2ccc3ccsc3c12 [Compound 15, Methyl 7-oxo-8-phenyl-7H-thieno[2,3-a]quinolizine-10-carboxylate]
IC50 [2]: 3 µM
Emax [2]: 60%

COCCN(Cc1ccco1)C(=O)c1cc(-c2ccccc2OC)c(=O)n2ccc3ccsc3c12 [Compound 139, 8-(2-Methoxy-phenyl)-7-oxo-7H-thieno[2,3-a]quinolizine-10-carboxylic acid (furan-2-yl-methyl)-(2-methoxy-ethyl)-amide]
IC50 [2]: 3.3 µM
Emax [2]: 100%

COCCN(CC1CC1)C(=O)c1cc(-c2ccccc2OC)c(=O)n2ccc3ccsc3c12 [Compound 119, 8-(2-Methoxy-phenyl)-7-oxo-7H-thieno[2,3-a]quinolizine-10-carboxylic acid cyclopropylmethyl-(2-methoxy-ethyl)-amide]
IC50 [2]: 1.6 µM
Emax [2]: 60 to 80%

COc1ccccc1-c1cc(C(=O)NCc2ccccc2)c2c3sccc3ccn2c1=O [Compound 135, 8-(2-Methoxy-phenyl)-7-oxo-7H-thieno[2,3-a]quinolizine-10-carboxylic acid benzyl-amide]
IC50 [2]: 3 µM
Emax [2]: 100%

COCCN(CCOC)C(=O)c1cc(-c2ccc(C)cc2)c(=O)n2ccc3ccsc3c12 [Compound 150, 7--Oxo-8-p-tolyl-7H-thieno[2,3-a]quinolizine-10-carboxylic acid bis-(2-methoxy-ethyl)-amide]
IC50 [2]: 2.7 µM
Emax [2]: 100%

From patent publication US5869500A, “Pyridone compounds useful in treating Alzheimer's disease” (Hoffmann-La Roche Inc., priority 1996, dated 1999)
